Article PMC12607897, “Inhibition of HIV-1 replication by primer RNA packaging inhibitors” (mBio, 2025)

What was measured:
[1] = test system: HIV-1 NLENG1-IRES-GFP (NL4-3-GFP) virus in MT4 cells; test: ex vivo HIV-1 replication assay, GFP expression by flow cytometry in infected MT4 cells (multiple cycles); assay type: cell-based; conditions: drug 10 µM, added 36–48 h after infection, read 72 h later
Procedure: To test this hypothesis, azelastine, lacidipine, and cilnidipine were used in an ex vivo assay to determine their effect on HIV-1 proliferation. MT4 cells were infected with NLENG1-IRES-GFP, a virus that allows for multiple cycles of infection, and the molecules were added to the medium 36–48 h after infection, before the completion of the first round of viral infection; 72 h after the drugs were added, when two rounds of HIV-1 infection were underway, the level of GFP fluorescence was determined by flow cytometry, as a marker of HIV-1 infection (Fig. 3, left panel). HIV-1 replication was inhibited in a dose-dependent manner. […]. […] At the same time, no drug toxicity was observed, as determined by the MTT assay (Fig. 3, right panel). […] The selectivity index (SI) ([24]) of the three drugs, defined as the ratio of 50% cytotoxic concentration (CC50; >20 µM) to 50% inhibitory concentration (IC50; ~5 µM), >4.
Fig 3 Effect of the inhibitors on HIV-1 replication and cell toxicity. MT4 cells were infected with NL4-3-GFP virus. Two days after infection, inhibitors were added to the culture medium at final concentrations of 1, 3.3, or 10 µM. The final concentration of DMSO was 0.1%. Five days after infection, GFP expression was quantified by flow cytometry, and cell viability was determined by the MTT assay. NInf corresponds to non-infected cells. Six independent experiments were performed, and standard deviations are shown. A Student t-test was used to determine statistical significance compared with the control experiment with DMSO (*: P < 0.001; **: P < 0.0001).
MT4 cell line ([26]) was maintained in RPMI 1640. HEK293T and HeLa-P4 cells ([27]) were maintained in Dulbecco’s modified Eagle medium (DMEM). All media were supplemented with Glutamax and with 10% heat-inactivated fetal calf serum (Hyclone) and 1% penicillin/streptomycin (100 units/mL) (Gibco). All media were purchased from Gibco (Life Technologies Co.). All cell lines used here were incubated at 37 °C, under 5% CO2 atmosphere. HIV-1 stocks were prepared by calcium phosphate-mediated transfection of HEK293T cells, as previously described ([22]), with shuttle vector plasmids encoding HIV-1 NL4-3 (GenBank: AF324493.1) or NLENG1-IRES-GFP ([28]). The latter vector comes from the HIV NL4-3 strain and contains a gfp-IRES-nef cassette at the nef locus. […].
For NL4-3-GFP vectors, viral infection is followed by GFP expression (i.e., the percentage and geometric mean fluorescence intensity [MFI] of GFP^+ cells). Infectivity was estimated by flow cytometry using a FACS Celesta flow cytometer (BD Biosciences). Toxicity is also assessed by flow cytometry (side and forward scatter).

[2] = test system: HIV-1 NL4-3 virus produced in MT4 cells; test: infectivity of virus particles by the CPRG method in HeLa P4 cells; assay type: cell-based; conditions: viruses recovered after MT4 cells were exposed to 10 µM drugs
Procedure: We used the CPRG method developed in HeLa P4 cells grown in 96-well plates to measure the infectivity of virus particles, as low levels of virus were recovered after exposure of infected MT4 cells to different drug concentrations. In this assay, expression of the LacZ gene is under the control of the HIV-1 LTR, and its level of trans-activation correlates with the level of expression of HIV-1 Tat. HeLa P4 cells were incubated with normalized amounts of virus as measured by the P24 assay, and the expression of β-galactosidase was determined by the CPRG assay (Fig. 5).
Fig 5 Infectivity of newly formed HIV-1 particles produced in the presence of drugs. MT4 cells were infected with the NL4-3 virus. […] The infectivity of HIV-1 viruses was determined by the CPRG method. […]
Replication of the NL4-3 virus was determined either by the ELISA technique or in HeLa-P4 cells by the CPRG method as described previously ([29]). These are HeLa CD4 LTR-lacZ cells in which the expression of lacZ is induced by the HIV transactivator Tat, allowing precise quantification of the infectivity of HIV-1. The viral titer was determined by quantifying β-galactosidase activity in HeLa-P4 lysates in a colorimetric assay based on the cleavage of chlorophenol red-β-D-galactopyranoside (CPRG) by β-galactosidase. The cytotoxicity is evaluated by the MTT assay.

Compound: CN1CCCC(n2nc(Cc3ccc(Cl)cc3)c3ccccc3c2=O)CC1 (centres unmarked) [azelastine]
- GFP fluorescence, % of the value observed when DMSO was added alone [1]: 15.2%
- infectivity of viruses compared with wild-type viruses [2]: less than 4%
